Source: publication PMC6445170, “VEGFR-2 inhibitors and apoptosis inducers: synthesis and molecular design of new benzo[g]quinazolin bearing benzenesulfonamide moiety” (Journal of Enzyme Inhibition and Medicinal Chemistry, 2017)
pIC50: −log10 of the molar value.

molecular target: T1, VEGFR-2 (Homo sapiens, UniProt P35968); assay: AlphaScreen kinase assay, phosphotyrosine antibody; type: cell-based; settings: 5 min preincubation, room temperature; VEGFR-2 activity determined in MCF-7 cells
T1 construct: gene KDR; not described; endogenous activity said to be determined in MCF-7 cells, but compounds were incubated with 'enzyme' (AlphaScreen)
T1 sequence (P35968 20-1356): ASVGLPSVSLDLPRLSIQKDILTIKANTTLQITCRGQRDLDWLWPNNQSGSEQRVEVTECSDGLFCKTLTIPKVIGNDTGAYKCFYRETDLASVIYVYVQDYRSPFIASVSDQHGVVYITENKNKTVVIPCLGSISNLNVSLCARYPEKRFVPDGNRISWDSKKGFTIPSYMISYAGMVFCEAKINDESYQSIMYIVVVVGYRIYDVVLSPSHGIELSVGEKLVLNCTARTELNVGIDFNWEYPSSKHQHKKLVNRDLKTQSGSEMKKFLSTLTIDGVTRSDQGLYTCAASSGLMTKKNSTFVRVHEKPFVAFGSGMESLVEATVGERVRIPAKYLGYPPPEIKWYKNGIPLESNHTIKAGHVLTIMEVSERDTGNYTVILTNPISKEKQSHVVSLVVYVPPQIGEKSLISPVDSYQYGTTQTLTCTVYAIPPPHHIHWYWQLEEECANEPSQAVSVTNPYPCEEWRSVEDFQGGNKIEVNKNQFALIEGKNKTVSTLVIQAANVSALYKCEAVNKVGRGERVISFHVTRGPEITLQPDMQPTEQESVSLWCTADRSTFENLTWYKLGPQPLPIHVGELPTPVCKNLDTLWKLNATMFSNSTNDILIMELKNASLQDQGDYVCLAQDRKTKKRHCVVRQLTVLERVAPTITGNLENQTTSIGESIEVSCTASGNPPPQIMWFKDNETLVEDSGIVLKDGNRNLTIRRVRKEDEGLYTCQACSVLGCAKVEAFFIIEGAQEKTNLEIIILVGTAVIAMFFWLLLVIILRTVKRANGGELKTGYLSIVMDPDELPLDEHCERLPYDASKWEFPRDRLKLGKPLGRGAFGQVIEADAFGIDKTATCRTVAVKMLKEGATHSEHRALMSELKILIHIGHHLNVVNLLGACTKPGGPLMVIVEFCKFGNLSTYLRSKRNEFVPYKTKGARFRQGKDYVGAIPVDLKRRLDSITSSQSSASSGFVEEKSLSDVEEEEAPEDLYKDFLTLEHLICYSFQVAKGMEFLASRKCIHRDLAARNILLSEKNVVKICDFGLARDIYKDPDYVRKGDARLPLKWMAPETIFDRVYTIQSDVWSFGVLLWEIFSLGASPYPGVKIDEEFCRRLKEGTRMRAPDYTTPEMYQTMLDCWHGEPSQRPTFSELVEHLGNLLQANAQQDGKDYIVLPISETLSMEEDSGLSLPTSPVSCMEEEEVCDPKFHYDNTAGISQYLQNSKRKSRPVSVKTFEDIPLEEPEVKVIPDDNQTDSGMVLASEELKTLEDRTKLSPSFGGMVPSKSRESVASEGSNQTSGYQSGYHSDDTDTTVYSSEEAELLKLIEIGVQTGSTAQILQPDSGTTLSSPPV
Source text: AlphaScreen kinase assay, phosphotyrosine antibody on VEGFR-2

Row | SMILES | % Inhibition of VEGFR-2 enzyme [%]
1 | NNC(=O)CSc1nc2cc3ccccc3cc2c(=O)n1-c1ccc(S(N)(=O)=O)cc1 [compound 5, 4-(2-(2-Hydrazinyl-2-oxoethylthio)-4-oxobenzo[g]quinazolin-3(4H)-yl)benzenesulfonamide] | 68.44
2 | Cc1ccc(C)c(C=NNC(=O)CSc2nc3cc4ccccc4cc3c(=O)n2-c2ccc(S(N)(=O)=O)cc2)c1 [compound 6, 4-(2-(2-(2-(2,5-Dimethylbenzylidene)hydrazinyl)-2-oxoethylthio)-4-oxobenzo[g]quinazolin-3(4H)-yl)benzenesulfonamide] | 69.95
3 | NS(=O)(=O)c1ccc(-n2c(SCC(=O)NN=Cc3ccc(Br)cc3)nc3cc4ccccc4cc3c2=O)cc1 [compound 10, 4-(2-(2-(2-(4-Bromobenzylidene)hydrazinyl)-2-oxoethylthio)-4-oxobenzo[g]quinazolin-3(4H)-yl)benzenesulfonamide] | 64.89
4 | NS(=O)(=O)c1ccc(-n2c(SCC(=O)NN=Cc3ccc4c(c3)OCO4)nc3cc4ccccc4cc3c2=O)cc1 [compound 11, 4-(2-(2-(2-(Benzo[d][1,3]dioxol-5-ylmethylene)hydrazinyl)-2-oxoethylthio)-4-oxobenzo[g]quinazolin-3(4H)-yl)benzenesulfonamide] | 71.29

same assay, conditions: 5 min preincubation, room temperature; VEGFR-2 activity determined in MCF-7 cells; inhibitor concentration not stated

Row | SMILES | % Inhibition of VEGFR-2 enzyme [%]
5 | Cc1ccc(C=NNC(=O)CSc2nc3cc4ccccc4cc3c(=O)n2-c2ccc(S(N)(=O)=O)cc2)cc1F [compound 7, 4-(2-(2-(2-(3-Fluoro-4-methylbenzylidene)hydrazinyl)-2-oxoethylthio)-4-oxobenzo[g]quinazolin-3(4H)-yl)benzenesulfonamide] | 72.19

same assay, conditions: 5 min preincubation, room temperature; VEGFR-2 activity determined in MCF-7 cells; read-out: IC50 on VEGFR-2 enzyme (μm)

Row | SMILES | pIC50
6 | NS(=O)(=O)c1ccc(-n2c(SCC(=O)NN=Cc3ccc(Cl)cc3Cl)nc3cc4ccccc4cc3c2=O)cc1 [compound 9, 4-(2-(2-(2-(2,4-Dichlorobenzylidene)hydrazinyl)-2-oxoethylthio)-4-oxobenzo[g]-quinazolin-3(4H)-yl)benzenesulfonamide] | 6.19
7 | NS(=O)(=O)c1ccc(-n2c(SCC(=O)N3NC(=O)CC3=O)nc3cc4ccccc4cc3c2=O)cc1 [compound 20, 4-(2-(2-(3,5-Dioxopyrazolidin-1-yl)-2-oxoethylthio)-4-oxobenzo[g]quinazolin-3(4H)-yl) benzenesulfonamide] | 6.07
8 | CCOC(=O)c1cnn(C(=O)CSc2nc3cc4ccccc4cc3c(=O)n2-c2ccc(S(N)(=O)=O)cc2)c1N [compound 22, Ethyl 5-amino-1-(2-(4-oxo-3-(4-sulfamoylphenyl)-3,4-dihydrobenzo[g]quinazolin-2-ylthio)acetyl)-1H-pyrazole-4-carboxylate] | 6.08
9 | Cc1nn(C(=O)CSc2nc3cc4ccccc4cc3c(=O)n2-c2ccc(S(N)(=O)=O)cc2)c(N)c1C#N [compound 23, 4-(2-(2-(5-Amino-4-cyano-3-methyl-1H-pyrazol-1-yl)-2-oxoethylthio)-4-oxobenzo[g]quinazo-lin-3(4H)-yl) benzenesulfonamide] | 5.98
